Values of other authors in patent US20240293789A1, “Encapsulation of Functional Additives in Partially-Open Microcapsules” (priority 2023, published 2024).

settings: common solvents used for the encapsulated materials; reference table

| SMILES | solubility in water |
| --- | --- |
| COCCOC [1,2-dimethoxy-ethane (glyme, DME), 1,2-dimethoxy-ethane] | Miscible |
| CN(C)P(N(C)C)N(C)C [Hexamethylphosphorous triamide (HMPT), Hexamethylphosphorous triamide] | Miscible |
| C1CCCCC1 [cyclohexane] | 0.0055 g/100 g |
| CCOCC [diethyl ether] | 7.5 g/100 g |
| COCCOCCOC [diethylene glycol dimethyl ether] | Miscible |
| CCO [ethanol] | Miscible |
| CCOC(C)=O [ethyl acetate] | 8.7 g/100 g |
| OCC(O)CO [glycerin] | Miscible |
| CCCCCCC [heptane] | 0.01 g/100 g |
| CCCCCC [hexane] | 0.0014 g/100 g |
| Cc1cccc(C)c1 [m-xylene] | Insoluble |
| Cc1ccccc1C [o-xylene] | Insoluble |
| Cc1ccc(C)cc1 [p-xylene] | Insoluble |
| CCCCC [pentane] | 0.04 g/100 g |
